Data from US11986512B2, “Compositions and methods for cancer therapy” (Thetis Pharmaceuticals LLC, priority 2021, dated 2024).

How the values were obtained:
[1] = system: CD4+ and CD8+ cells in the liver; conditions: administration of either RvD1 or RvE1; cited from earlier work
HPV tumorigenesis = conditions: cited from earlier work
LLC cells [2] = experiment: Lewis lung carcinoma (LLC) model, with and without anti-PD1 or cisplatin; assay type: in vivo, C57BL/6J male mice; conditions: monotherapy, 5 mg/kg, i.p, Q5D
Method: A representative compound of Formula IV, RvE1 magnesium dilysinate, was tested for efficacy in several mouse models of cancer, including the Panc2-H7 model of pancreatic cancer, the Lewis lung carcinoma (LLC) model, the MC38 model of colorectal cancer, and the B16F10 model of melanoma. These models are well established, highly tumorigenic syngeneic models in which murine cancer cell lines are injected subcutaneously (SC) into the dorsum of C57BL/6J mice. If left untreated, these tumors grow rapidly and lead to death or euthanasia, per protocol. As detailed below in Examples 1-9 and the accompanying figures, bis RvE1 Mg-di-lysinate (Compound 1) was unexpectedly effective as an anti-cancer agent in each of these model systems when administered in a less than daily (LTD) dosing regimen. […] Without being bound by any theory, the surprising efficacy of LTD dosing of resolvins in the cancer model systems described here may be the result of durable effects on the tumor microenvironment including changes in immune cell phenotype, vascularization, stromal phenotype, and antigen presentation, as well as durable effects on the T-cell compartment such as T-cell priming and increased tumor-infiltrating lymphocytes.
To expand our understanding of bis RvE1 Mg-di-lysinate as a cancer therapy that could be used in combination with other cancer therapies including immune checkpoint inhibitors, bis RvE1 Mg-di-lysinate monotherapy and in combination either anti-PD1 or cisplatin was investigated in the LLC model of non-small cell lung cancer, which is a model known to unresponsive to anti-PD1 therapy and moderately responsive to cisplatin. Yu et al., J Exp Clin Cancer Res. 2010; 29(1):46; Lechner et al., J Immunother. 2013; 36(9):477-489. A total of forty (40) C57BL/6J male mice were injected subcutaneously with 1×10e6 living LLC cells. […] In addition, bis RvE1 Mg-di-lysinate was evaluated in combination with anti-PD1 or cisplatin. […]

LLC cells [3] = experiment: Metastatic LLC resection model, perioperative (neo-adjuvant) treatment; assay type: in vivo, C57BL/6J male mice; conditions: 5 mg/kg, i.p, Q6D, first dose 24 hours prior to surgery; compared to vehicle control
Method: To investigate the efficacy of LTD dosing of bis RvE1 Mg-di-lysinate as neo-adjuvant therapy, a study was conducted in the metastatic LLC resection model with treatment initiated in the perioperative window. A total of fifteen (15) C57BL/6J male mice were injected subcutaneously with 1×10e6 living LLC cells. Once tumors reached approximately 1200-1500 mme3 in size, the mice were randomized (n=4-8 per group) to treatment with vehicle (SC, Q6D), bis RvE1 Mg-di-lysinate (300 ug/kg, SC, Q6D), or cisplatin (5 mg/kg, i.p, Q6D), followed by surgical resection of the tumors. The mice in the vehicle and cisplatin groups received an initial dose twenty-four (24) hours prior to surgery, and the mice treated with bis RvE1 Mg-di-lysinate received an initial dose two (2) hours prior to surgery. All mice were sacrificed on day 19 following the death of three mice in the vehicle control group on day 18.

[4] = system: polymorphonuclear leukocyte (PMN) recruitment; conditions: equimolar dose; cited from earlier work
KPC cells = experiment: Orthotopic KPC model of pancreatic cancer, survival; assay type: in vivo, C57BL/6J male mice
Method: To expand our understanding of less than daily (LTD) dosing of bis RvE1 Mg-di-lysinate as a cancer therapy that could be used in combination with chemotherapy, bis RvE1 Mg-di-lysinate (Compound 1) was investigated in the orthotopic KPC model of pancreatic cancer. A total of fifteen (15) C57BL/6J male mice were implanted orthotopically with 5×10e5 living KPC cells into the pancreas. The mice were randomized (n=7-8) to treatment with bis RvE1 Mg-di-lysinate (300 ug/kg, SC, Q6D) with or without gemcitabine (50 mg/kg, IP, Q3D, up to 6 doses) one day after tumor cell implantation.

CC/C=C\C[C@H](O)/C=C/C=C\C=C\C=C\[C@@H](O)[C@@H](O)C/C=C\CCC(=O)O [RvD1, 7S,8R,17S-trihydroxy-4Z,9E,11E,13Z,15E,19Z-docosahexaenoic acid]
levels of CD4+ and CD8+ cells in the liver [1]: markedly downregulated levels of CD4+ and CD8+ cells in the liver
tumor infiltration levels of CD4+ and CD8+ T cells (HPV tumorigenesis; in vivo): did not modify tumor infiltration levels of CD4+ and CD8+ T cells
tumor progression (HPV tumorigenesis; via modulated activity of tumor-associated neutrophils (PMN)): reduce tumor progression

N.N.[Cl][Pt][Cl] [cisplatin, reference compound]
tumor volume (Day 11 vs Day 0) (LLC cells [2]): failed to demonstrate efficacy as monotherapy compared to placebo
number of lung metastases (LLC cells [3]): failed to show a significant reduction
number of mice with lymph node metastasis (LLC cells [3]): failed to show a significant reduction

CCC(=O)/C=C/C=C\C[C@@H](O)/C=C/C=C/C=C\[C@@H](O)CCCC(=O)O [Compound 18-oxo-RvE1, 18-oxo-RvE1]
activity in zymosan-induced peritonitis (PMN recruitment) [4]: devoid of activity

CC[C@@H](O)/C=C/C=C\C[C@@H](O)/C=C/C=C/C=C\[C@@H](O)CCCC(=O)O [RvE1, 5S,12R,18R-trihydroxy-6Z,8E,10E,14Z,16E-eicosapentaenoic acid]
activity in zymosan-induced peritonitis (PMN recruitment) [4]: potently reduced polymorphonuclear leukocyte (PMN) recruitment
levels of CD4+ and CD8+ cells in the liver [1]: markedly downregulated levels of CD4+ and CD8+ cells in the liver

Nc1ccn([C@@H]2O[C@H](CO)[C@@H](O)C2(F)F)c(=O)n1 [gemcitabine, reference compound]
mice alive as of the last observation (day 250) (KPC cells; gemcitabine monotherapy group): zero of eight mice
mean survival (KPC cells; gemcitabine monotherapy, 50 mg/kg, IP, Q3D, up to 6 doses): 25 days
